From patent publication US9695155B2, “Herbicidal substituted pyrimidinyloxy benzene compounds” (E. I. DU PONT DE NEMOURS AND COMPANY, priority 2013, dated 2017)

Key:
[1] = system: barnyardgrass; assay: Test A postemergence; format: in vivo, Echinochloa crus-galli; settings: 1000 g ai/ha, 0 to 100 scale, 0 no effect, 100 complete control
Procedure, shortened: (§1)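 Scoring: eye-based comparison with untreated controls, 0 for no effect through 100 for complete control, at about day 10. Treatments: directed soil spray preemergence; foliar spray postemergence on 2–10 cm plants at the one- to two-leaf stage. Medium: loam soil with sand.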

[2] = system: giant foxtail; assay: Test A postemergence; format: in vivo, Setaria faberii; settings: 1000 g ai/ha, 0 to 100 scale, 0 no effect, 100 complete control
Procedure, shortened: as §1

[3] = system: corn; assay: Test A postemergence; format: in vivo, Zea mays; settings: 1000 g ai/ha, 0 to 100 scale, 0 no effect, 100 complete control
Procedure, shortened: as §1

[4] = system: Heteranthera limosa; assay: Test B flooded paddy test; format: in vivo; settings: Flood, 250 g ai/ha; 0 to 100 scale where 0 is no effect and 100 is complete control
Procedure, shortened: (§2)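 Plants at 2-leaf stage; pots flooded to 3 cm above soil and compound applied directly into paddy water, depth held throughout. After 13 to 15 days in greenhouse, visual rating versus controls on 0 (no effect) to 100 (complete control) scale.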

[5] = system: barnyardgrass; assay: Test B flooded paddy test; format: in vivo, Echinochloa crus-galli; settings: Flood, 250 g ai/ha; 0 to 100 scale where 0 is no effect and 100 is complete control
Procedure, shortened: as §2

[6] = system: wheat, winter; assay: Test C preemergence; format: in vivo, Triticum aestivum; settings: preemergence
Procedure, shortened: (§3)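 Seeds were sown in loam–sand blend and sprayed preemergence, while plants at 1- to 4-leaf stage (2–18 cm) in peat-based medium received postemergence sprays; test chemicals were formulated in a non-phytotoxic solvent with surfactant. After 13–15 days in a greenhouse, injury was rated visually against controls, 0 (no effect) to 100 (complete control).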

[7] = system: giant foxtail; assay: Test C preemergence; format: in vivo, Setaria faberii; settings: for Foxtail, Giant plant response rating: preemergence
Procedure, shortened: as §3

[8] = system: yellow nutsedge; assay: Test C preemergence; format: in vivo, Cyperus esculentus; settings: preemergence
Procedure, shortened: as §3

[9] = system: pigweed; assay: Test C preemergence; format: in vivo, Amaranthus retroflexus; settings: preemergence
Procedure, shortened: as §3

[10] = system: velvetleaf; assay: Test C preemergence; format: in vivo, Abutilon theophrasti; settings: preemergence
Procedure, shortened: as §3

[11] = system: galium; assay: Test C postemergence; format: in vivo, Galium aparine
Procedure, shortened: as §3

[12] = system: morningglory; assay: Test C postemergence; format: in vivo, Ipomoea coccinea
Procedure, shortened: as §3

[13] = system: chickweed; assay: Test C postemergence; format: in vivo, Stellaria media
Procedure, shortened: as §3

[14] = 16 g ai/ha, scale 0 to 100 (0 no effect, 100 complete control)
[15] = 62 g ai/ha, scale 0 (no effect) to 100 (complete control)
[16] = 125 g ai/ha, scale 0 (no effect) to 100 (complete control)
[17] = 16 g ai/ha, postemergence, 0 is no effect, 100 is complete control
[18] = 31 g ai/ha, postemergence, visual rating, scale 0 to 100 (0 no effect, 100 complete control), 13 to 15 days
[19] = 125 g ai/ha, postemergence, visual rating, scale 0 to 100 (0 no effect, 100 complete control)
[20] = Postemergence, 62 g ai/ha, scale 0 to 100 (0 no effect, 100 complete control)

With `FCc1cn(-c2c(F)cccc2Oc2ncc(Cl)cn2)nn1` [Compound 154] the “Plant response rating, Barnyardgrass” value [1] was 100, the “Plant response rating, Foxtail, Giant” value [2] was 100 and the “Plant response rating, Corn” value [3] was 90. For the same compound, the “Plant response rating, Ducksalad” value [4] was 80, the “Plant response rating, Barnyardgrass” value [5] was 20 and the “Wheat plant response rating” value [6, 14] was 0. The “Wheat plant response rating” value [6, 15] was 0, the “Wheat plant response rating” value [6, 16] was 5 and the “Foxtail, Giant plant response rating” value [7, 14] was 5. For the same compound, the “Foxtail, Giant plant response rating” value [7, 15] was 85, the “Foxtail, Giant plant response rating” value [7, 16] was 100 and the “Plant response rating, Foxtail, Giant” value ([7]; Preemergence, 31 g ai/ha, scale 0 to 100, 0 no effect, 100 complete control) was 70. For the same compound, the “Nutsedge, Yellow plant response rating” value [8, 14] was 0, the “Nutsedge, Yellow plant response rating” value [8, 15] was 5 and the “Nutsedge, Yellow plant response rating” value [8, 16] was 65. The “Pigweed plant response rating” value [9, 14] was 85, the “Pigweed plant response rating” value [9, 15] was 100 and the “Pigweed plant response rating” value [9, 16] was 100. For the same compound, the “Velvetleaf plant response rating” value [10, 14] was 85, the “Velvetleaf plant response rating” value [10, 15] was 100 and the “Velvetleaf plant response rating” value [10, 16] was 100. For the same compound, the “Plant response rating (0 to 100), Galium” value [11, 17] was 60, the “Galium plant response rating” value [11, 18] was 65 and the “Plant response rating, Galium” value [11, 19] was 85. The “Plant response rating, Galium” value [11, 20] was 80, the “Plant response rating (0 to 100), Morningglory” value [12, 17] was 55 and the “Morningglory plant response rating” value [12, 18] was 65. For the same compound, the “Plant response rating, Morningglory” value [12, 19] was 80, the “Plant response rating, Morningglory” value [12, 20] was 65 and the “Plant response rating (0 to 100), Chickweed” value [13, 17] was 5. The “Chickweed plant response rating” value [13, 18] was 5, the “Plant response rating, Chickweed” value [13, 19] was 60 and the “Plant response rating, Chickweed” value [13, 20] was 10.
